Assays:
[1] = wn = mass fraction of the nth substance listed; details: 101 kPa, Liquid; for mass density: Pycnometric method; for viscosity: Capillary tube (Ostwald / Ubbelohde) method; for speed of sound: variable-path interferometer
[2] = mn = molality of the nth substance listed, in mol/kg; details: 101 kPa, Liquid, variable-path interferometer
[3] = 101 kPa, Liquid, Linear variable-path acoustic interferometer

OC[C@H]1O[C@@](CO)(O[C@H]2O[C@H](CO)[C@@H](O)[C@H](O)[C@H]2O)[C@@H](O)[C@@H]1O [D-sucrose] + O
[1]
Details | mass density [kg/m3] | speed of sound [m/s] | viscosity [mPa·s]
293.15 K, w1 = 0.05 | 1018.91 | – | –
293.15 K, w1 = 0.1 | 1039.28 | – | –
293.15 K, w1 = 0.15 | 1060.31 | – | –
293.15 K, w1 = 0.2 | 1082.73 | – | –
298.15 K, w1 = 0.05 | 1017.19 | 1516.5 | 1.011
298.15 K, w1 = 0.1 | 1037.45 | 1531.8 | 1.183
298.15 K, w1 = 0.15 | 1058.49 | 1543.6 | 1.418
298.15 K, w1 = 0.2 | 1080.77 | 1555.3 | 1.756
303.15 K, w1 = 0.05 | 1015.45 | 1526.6 | 0.9129
303.15 K, w1 = 0.1 | 1035.61 | 1541.8 | 1.061
303.15 K, w1 = 0.15 | 1056.67 | 1553 | 1.252
303.15 K, w1 = 0.2 | 1078.8 | 1564.6 | 1.549
308.15 K, w1 = 0.05 | 1013.72 | 1537.8 | 0.8285
308.15 K, w1 = 0.1 | 1033.76 | 1551.6 | 0.9614
308.15 K, w1 = 0.15 | 1054.84 | 1562 | 1.129
308.15 K, w1 = 0.2 | 1076.84 | 1575.2 | 1.396
313.15 K, w1 = 0.05 | 1011.98 | 1547.7 | 0.7457
313.15 K, w1 = 0.1 | 1031.93 | 1561.8 | 0.8804
313.15 K, w1 = 0.15 | 1053.01 | 1570.8 | 1.025
313.15 K, w1 = 0.2 | 1074.88 | 1583.9 | 1.25
318.15 K, w1 = 0.05 | 1010.23 | 1557.2 | 0.6946
318.15 K, w1 = 0.1 | 1030.09 | 1570.9 | 0.8179
318.15 K, w1 = 0.15 | 1051.2 | 1579.2 | 0.9402
318.15 K, w1 = 0.2 | 1072.93 | 1592.8 | 1.15

C[C@@H](O)[C@H](N)C(=O)O [L-threonine] + O
speed of sound [m/s], [2]
Details | m1 = 0.0249 | m1 = 0.0498 | m1 = 0.0749 | m1 = 0.0999 | m1 = 0.125 | m1 = 0.1499 | m1 = 0.1749 | m1 = 0.1999
298.15 K | 1501.1 | 1505.5 | 1510.2 | 1515.2 | 1520.5 | 1526.1 | 1531.9 | 1538.1
303.15 K | 1512.5 | 1516.9 | 1521.6 | 1526.5 | 1531.7 | 1537.3 | 1543.2 | 1549.4
308.15 K | 1523.8 | 1528.1 | 1532.7 | 1537.5 | 1542.7 | 1548.2 | 1553.9 | 1560.1
313.15 K | 1530.7 | 1534.9 | 1539.4 | 1544.1 | 1549.2 | 1554.5 | 1560.2 | 1566.1
318.15 K | 1536.8 | 1540.9 | 1545.2 | 1549.8 | 1554.8 | 1560 | 1565.5 | 1571.3

O [water]
[3]
Details | speed of sound [m/s]
303.15 K | 1508.4
313.15 K | 1526.8
318.15 K | 1533

— the NIST ThermoML archive (doi:10.1016/j.jct.2013.05.012)
